The test system of assay [1] is methicillin-resistant Staphylococcus aureus (MRSA). Nature of the assay: MIC by agar dilution against a clinical isolate of MRSA. The class given is cell-based. An excerpt:
The in vitro activity of compounds of the subject invention may be assessed by standard testing procedures such as the determination of minimum inhibitory concentration (MIC) by agar dilution as described in “Approved Standard. Methods for Dilution Antimicrobial Susceptibility Tests for Bacteria that Grow Aerobically,” 3rd ed., published 1993 by the National Committee for Clinical Laboratory standards, Villanova, Pa., USA.
The in vitro MICs of test compounds may be determined by a standard agar dilution method. A stock drug solution of each analog is prepared in a preferred solvent, usually DMSO:H2O (1:3). Serial 2-fold dilutions of each sample are made using 1.0 ml aliquots of sterile distilled water. To each 1.0 ml aliquot of drug is added 9 ml of molten Mueller Hinton agar medium. The drug-supplemented agar is mixed, poured into 15×100 mm petri dishes, and allowed to solidify and dry prior to inoculation.
Vials of each of the test microorganisms are maintained frozen in the vapor phase of a liquid nitrogen freezer. Test cultures are grown overnight at 35° C. on the medium appropriate for the microorganism. Colonies are harvested with a sterile swab, and cell suspensions are prepared in Trypticase Soy broth (TSB) to equal the turbidity of a 0.5 McFarland standard. A 1:20 dilution of each suspension is made in TSB. The plates containing the drug supplemented agar are inoculated with a 0.001 ml drop of the cell suspension using a Steers replicator, yielding approximately 10^4 to 10^5 cells per spot. The plates are incubated overnight at 35° C.
Following incubation the Minimum Inhibitory Concentration (MIC μg/ml), the lowest concentration of drug that inhibits visible growth of the microorganism, is read and recorded.
Compounds of this invention can have useful activity against a variety of pathogenic microorganisms. The in vitro activity of compounds of this invention can be assessed by standard testing procedures such as the determination of minimum inhibitory concentration (MIC) by agar dilution as described in “Approved Standard. Methods for Dilution Antimicrobial Susceptibility Tests for Bacteria That Grow Aerobically”, 3rd. ed., published 1993 by the National Committee for Clinical Laboratory Standards, Villanova, Pa., USA. Minimum inhibitory concentration (MIC) refers to the lowest concentration of drug (μg/mL) that inhibits visible growth of the organism. Lower MIC values indicate a higher antibacterial activity. […] The activity of compounds of present invention against a clinical isolate of methicillin-resistant Staphylococcus aureus (MRSA; from the Massachusetts General Hospital, USA) is exemplified by the MIC data of Table 1.
Background: In agar dilution, organisms are placed on agar that contains the substance at set levels.

The target in assay [2] is T1, Human monoamine oxidase (MOA) A type enzyme (Homo sapiens, UniProt P21397).
T1 sequence (P21397 1-527): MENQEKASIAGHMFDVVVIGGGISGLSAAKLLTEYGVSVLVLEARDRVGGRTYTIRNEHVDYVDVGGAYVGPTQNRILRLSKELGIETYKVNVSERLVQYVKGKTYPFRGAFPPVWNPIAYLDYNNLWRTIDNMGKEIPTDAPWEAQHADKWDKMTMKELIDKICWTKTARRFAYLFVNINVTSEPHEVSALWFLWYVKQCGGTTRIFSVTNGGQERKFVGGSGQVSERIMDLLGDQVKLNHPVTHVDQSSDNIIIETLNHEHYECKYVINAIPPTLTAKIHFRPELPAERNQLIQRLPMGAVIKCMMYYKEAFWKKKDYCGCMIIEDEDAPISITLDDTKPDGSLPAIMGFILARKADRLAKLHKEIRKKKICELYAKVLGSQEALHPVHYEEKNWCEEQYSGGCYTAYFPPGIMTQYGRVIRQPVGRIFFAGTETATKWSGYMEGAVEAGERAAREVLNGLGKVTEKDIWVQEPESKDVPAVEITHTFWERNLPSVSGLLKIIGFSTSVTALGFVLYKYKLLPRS
Nature of the assay: MAO A inhibition, MAO-Glo assay kit (Promega). The class given is biochemical. The note with it: luminogenic substrate; for IC50: read-out: MAO-I IC50, μg/mL (converted). The protocol:
Human monoamine oxidase (MOA) A type enzyme inhibition activity for select compounds was measured using a commercial MAO assay kit MAO-Glo™ from Promega Co. (USA). The assay was performed as described in the company's technical bulletin MAOGlo™ Assay”. The protocol involves an incubation of the MAO A enzyme with a luminogenic MAO substrate to produce an enzymatic product which is converted to luciferin by a coupled reaction. The released luciferin undergoes further transformation to generate light that is detected and measured. The amount of the light is directly proportional to the activity of MAO. Percent inhibition at several concentrations is established relative to the uninhibited control rate, and the IC50 values are calculated. […] The MAO inhibition data for select compound of this invention are illustrated in the Table 1.

[3] abbreviates: Staphylococcus aureus, read-out: MRSA, MIC, μg/mL.
[4] abbreviates: clinical isolate of methicillin-resistant Staphylococcus aureus (Massachusetts General Hospital, USA), agar dilution, read-out: MRSA, MIC.

≈ marks a conversion by molar mass, not a printed value. Like-named read-outs stand apart in the source and are kept apart here.

Here are results for nine molecules from patent US20120157434A1, “Antimicrobial heterocyclic compounds for treatment of bacterial infections” (CSO of MicuRx Pharmaceuticals, Inc., priority 2007, published 2012).

`CC(=O)NC[C@@H]1OC(=O)N2c3ccc(-c4ccc(-c5nnn(C)n5)nc4)cc3C[C@@H]12` [Example 1, N-(((1S,9aS)-7-(6-(2-methyl-2H-tetrazol-5-yl)pyridin-3-yl)-3-oxo-1,3,9,9a-tetrahydrooxazolo[3,4-a]indol-1-yl)methyl)acetamide]: the MIC in assay [1] (setting [3]) worked out at 0.5 µg/mL (≈ 1.23 µM).
In the case of `CC(=O)NC[C@@H]1OC(=O)N2c3ccc(-c4ccc(-c5nnnn5C)nc4)cc3C[C@@H]12` [Example 2, N-(((1S,9aS)-7-(6-(1-methyl-1H-tetrazol-5-yl)pyridin-3-yl)-3-oxo-1,3,9,9a-tetrahydrooxazolo[3,4-a]indol-1-yl)methyl)acetamide], in assay [1] (setting [4]), the MIC amounted to 0.5 µg/mL (≈ 1.23 µM).
In the case of `CC(=O)NC[C@@H]1OC(=O)N2c3ccc(-c4ccc(N5CCOC5=O)nc4)cc3C[C@@H]12` [Example 3, N-(((1S,9aS)-3-oxo-7-(6-(2-oxooxazolidin-3-yl)pyridin-3-yl)-1,3,9,9a-tetrahydrooxazolo[3,4-a]indol-1-yl)methyl)acetamide], the MIC in assay [1] (setting [3]) worked out at 0.25 µg/mL (≈ 0.612 µM).
`CC(=O)NC[C@@H]1OC(=O)N2c3ccc(-c4ccc(-n5cnnn5)nc4)cc3C[C@@H]12` [Example 4, N-(((1S,9aS)-7-(6-(1H-tetrazol-1-yl)pyridin-3-yl)-3-oxo-1,3,9,9a-tetrahydrooxazolo[3,4-a]indol-1-yl)methyl)acetamide]: in assay [1] (setting [4]), the MIC was found to be 0.5 µg/mL (≈ 1.28 µM). Besides, the IC50 in assay [2] was 353 µM.
With `CC(=O)NC[C@@H]1OC(=O)N2c3ccc(N4Cc5cccnc5C4)cc3C[C@@H]12` [Example 6, N-(((1S,9aS)-3-oxo-7-(5H-pyrrolo[3,4-b]pyridin-6(7H)-yl)-1,3,9,9a-tetrahydrooxazolo[3,4-a]indol-1-yl)methyl)acetamide], the MIC in assay [1] (setting [4]) came out at 0.5 µg/mL (≈ 1.37 µM).
For the molecule `CC(=O)NC[C@@H]1OC(=O)N2c3ccc(-c4ccc(C5=NOC(CO)C5)nc4)cc3C[C@@H]12` (stereo partly drawn) [Example 8, N-(((1S,9aS)-7-(6-(5-(hydroxymethyl)-4,5-dihydroisoxazol-3-yl)pyridin-3-yl)-3-oxo-1,3,9,9a-tetrahydrooxazolo[3,4-a]indol-1-yl)methyl)acetamide], the MIC in assay [1] (setting [3]) amounted to 1 µg/mL (≈ 2.37 µM).
Regarding `CC(=O)NC[C@@H]1OC(=O)N2c3ccc(-c4ccc(C(=O)Cn5ccnc5)nc4)cc3C[C@@H]12` [Example 11, N-(((1S,9aS)-7-(6-(2-(1H-imidazol-1-yl)acetyl)pyridin-3-yl)-3-oxo-1,3,9,9a-tetrahydrooxazolo[3,4-a]indol-1-yl)methyl)acetamide], the MIC in assay [1] (setting [3]) came out at 1 µg/mL (≈ 2.32 µM). For the same molecule, the IC50 in assay [2] was > 232 µM.
As for `CC(=O)NC[C@@H]1OC(=O)N2c3ccc(-c4ccc([C@@]5(C#N)[C@@H]6CNC[C@@H]65)nc4)cc3C[C@@H]12` [Example 18, N-(((1S,9aS)-7-(6-((1R,5S,6s)-6-cyano-3-azabicyclo[3.1.0]hexan-6-yl)pyridin-3-yl)-3-oxo-1,3,9,9a-tetrahydrooxazolo[3,4-a]indol-1-yl)methyl)acetamide], the MIC in assay [1] (setting [4]) came to 0.5 µg/mL (≈ 1.16 µM). The IC50 in assay [2] is > 233 µM.
`CC(=O)NC[C@H]1CN(c2ccc(N3CCOCC3)c(F)c2)C(=O)O1` [Linezolid, linezolid, reference compound]: the MIC in assay [1] (setting [4]) is 2 µg/mL (≈ 5.93 µM). The “MAO-I IC50” value in assay [2] is 5 µg/mL.
